Source: PubChem BioAssay AID712 (Emory University Molecular Libraries Screening Center, 2007)
Activity calls are given as the source filed them. How the calls were made is not given here.

Target: Heat shock protein HSP 90-alpha (Homo sapiens) (UniProt P07900)
Experiment: tumor Hsp90 inhibitor potency, dose response (AID 712)
Settings: Hsp90 inhibition assay

Q: `COc1ccc(C2CC(=O)C3=C(C2)Nc2ncnn2C3c2ccccc2)cc1` (centres undefined) was tested. Which IC50 did it give?
A: > 50 µM (inactive)

Q: With `Nc1cc(=O)c2n[nH]nc2[nH]1` as the compound, how does the IC50 read?
A: > 50 µM (inactive)

Q: With `Cc1cc(=O)oc2c(N)c(OCc3ccccc3)ccc12` as the compound, how does the IC50 read?
A: > 50 µM (inactive)

Q: Which IC50 does the source give for `Nc1nc2c(s1)CCc1c-2cnn1-c1ccccc1` here?
A: 11.2 µM

Q: With `CC(=O)Oc1cc2c(C(=O)NCCN3CCOCC3)c(C)oc2c2ccccc12` as the compound, how does the IC50 read?
A: 19.7 µM

Q: Which IC50 does the source give for `O=C1C(c2cnc3c(n2)CCC=C3)=C(O)c2ccccc21` here?
A: > 50 µM (inactive)

Q: For `CCc1cc(C(=O)Cn2cnc3ccccc32)c(O)cc1O`, which IC50 is on record?
A: > 50 µM (inactive)

Q: Which IC50 does the source give for `Nc1cc2ccccc2c(O)c1O` here?
A: < 1.56 µM

Q: How did the IC50 turn out when `O=C(O)/C=C/c1ccc(O)c(O)c1` was run?
A: > 50 µM (inactive)

Q: For `O=C(COc1ccccc1Cl)c1ccc(O)cc1O`, which IC50 is on record?
A: > 50 µM (inactive)

Q: For `O=C(c1cc(-c2ccncc2)nc2ccc(Br)cc12)N1CCN(c2ccccn2)CC1`, which IC50 is on record?
A: > 50 µM (inactive)

Q: How did the IC50 turn out when `Nc1cccc2cccnc12` was run?
A: > 50 µM (inactive)

Q: `O=c1cc(NCCCO)c2ccccc2o1` was tested. Which IC50 did it give?
A: > 50 µM (inactive)

Q: For `O=C1C(c2nc3ccccc3s2)=C(O)c2ccccc21`, which IC50 is on record?
A: > 50 µM (inactive)

Q: How did the IC50 turn out when `O=C(NC1(O)C(=O)c2ccccc2C1=O)c1ccccc1` was run?
A: 19.5 µM

Q: `O=C(O)c1ccc2c3c(ncnc13)-c1ccccc1C2=O` was tested. Which IC50 did it give?
A: 5.22 µM

Q: For `COc1cc(NC(=O)CCCCCCN)c2ncccc2c1`, which IC50 is on record?
A: > 50 µM (inactive)

Q: With `COc1cc(NCCN(CC(C)C)CC(C)C)c2ncccc2c1` as the compound, how does the IC50 read?
A: inactive

Q: `CCOc1ccc2ccccc2c1-c1cc(NS(=O)(=O)c2cc(Cl)ccc2Cl)ccc1N` was tested. Which IC50 did it give?
A: > 50 µM (inactive)

Q: How did the IC50 turn out when `CC(C)CN1C(=O)NC(NC(=O)c2ccco2)(C(F)(F)F)C1=O` (centres undefined) was run?
A: > 50 µM (inactive)

Q: `Cc1ccc(S(=O)(=O)C(CCC(=O)N2CCOCC2)S(=O)(=O)c2ccc(C)cc2)cc1` was tested. Which IC50 did it give?
A: > 50 µM (inactive)

Q: For `CC(=O)Nc1cnc2ccccc2n1`, which IC50 is on record?
A: inactive

Q: How did the IC50 turn out when `O=C(NC1(C(F)(F)F)Oc2ccc(Cl)cc2O1)N1CCC2(CC1)OCCO2` (centres undefined) was run?
A: 23.4 µM

Q: `CCCCn1c(NC(=O)c2ccco2)c(C(=O)OCC)c2nc3ccccc3nc21` was tested. Which IC50 did it give?
A: > 50 µM (inactive)

Q: For `NNc1ccc2c(Cl)cc(Cl)c(O)c2n1`, which IC50 is on record?
A: > 50 µM (inactive)

Q: With `COc1ccc(C2=NO[C@@H]3C(=O)N(c4ccc5c(c4)OCCO5)C(=O)[C@H]23)cc1OC` as the compound, how does the IC50 read?
A: 29.7 µM

Q: For `COc1cc(NCCCC(C)=O)c2nccc(Cl)c2c1`, which IC50 is on record?
A: > 50 µM (inactive)

Q: Which IC50 does the source give for `COc1ccc(-c2nc(CS(=O)CC(=O)NCc3ccccn3)c(C)o2)cc1` (centres undefined) here?
A: 19.3 µM

Q: For `Nc1cc(Br)cc2cccnc12`, which IC50 is on record?
A: > 50 µM (inactive)

Q: How did the IC50 turn out when `Cc1[nH]c2c(N)cccc2c1C` was run?
A: > 50 µM (inactive)

Q: With `CCOc1ccc(NCC(=O)Nc2ccc(C)cc2C)cc1` as the compound, how does the IC50 read?
A: 7.86 µM

Q: How did the IC50 turn out when `CC(=O)Oc1cccc2c1C(=O)c1c(OC(C)=O)cc(C(=O)O)cc1C2=O` was run?
A: 9.23 µM

Q: `Cc1coc2c(O)cc3c(c12)OC1(N2CCCCC2)C(=O)NCCCC31` (centres undefined) was tested. Which IC50 did it give?
A: 6.62 µM

Q: For `Nc1ccc(Cc2ccccc2)c(O)c1`, which IC50 is on record?
A: > 50 µM (inactive)

Q: `OCCCc1nc2n(n1)C(c1ccccc1)C=C(c1ccccc1)N2` (centres undefined) was tested. Which IC50 did it give?
A: > 50 µM (inactive)

Q: Which IC50 does the source give for `COc1cc(NS(=O)(=O)c2ccc(F)c(C#N)c2)c2ncccc2c1` here?
A: > 50 µM (inactive)

Q: `CC(C)c1cc(Nc2cccc(O)c2)cc(C(C)C)c1O` was tested. Which IC50 did it give?
A: 27.2 µM

Q: Which IC50 does the source give for `Cc1ccc(C(=O)O)cc1S(=O)(=O)NCC1CCCO1` (centres undefined) here?
A: > 50 µM (inactive)

Q: For `N#Cc1cc(S(=O)(=O)Nc2ccc(F)c(-c3c(O)ccc4c3OCO4)c2)ccc1F`, which IC50 is on record?
A: 25 µM

Q: Which IC50 does the source give for `Nc1cccc(S(=O)(=O)Nc2ccc(O)c(-c3ccccc3O)c2)c1` here?
A: > 50 µM (inactive)

Q: `COc1cccc2c1C(=O)c1c(O)c3c(c(O)c1C2=O)C[C@@](O)(C(C)=O)C[C@@H]3O[C@H]1C[C@H](N)[C@H](O)[C@H](C)O1` was tested. Which IC50 did it give?
A: 0.174 µM

Q: How did the IC50 turn out when `Oc1ccc2[nH]ccc2c1` was run?
A: > 50 µM (inactive)

Q: With `COc1ccccc1-c1nnc2n1N=C(c1ccc(O)c(O)c1)CS2` as the compound, how does the IC50 read?
A: 10.7 µM

Q: `C=CCn1c(N)c(C(=O)OCC(C)C)c2nc3ccccc3nc21` was tested. Which IC50 did it give?
A: > 50 µM (inactive)

Q: `COc1cccc2c1C(=O)c1c(O)c3c(c(O)c1C2=O)C[C@@](O)(C(=O)CO)C[C@@H]3O[C@H]1C[C@H](N)[C@H](O)[C@H](C)O1` was tested. Which IC50 did it give?
A: 0.266 µM

Q: For `Nc1ccc(NS(=O)(=O)c2cccc([N+](=O)[O-])c2)cc1-c1ccccc1O`, which IC50 is on record?
A: > 50 µM (inactive)

Q: How did the IC50 turn out when `CCCc1cc(-c2[nH]ncc2-c2ccc3c(c2)OCCCO3)c(O)cc1O` was run?
A: 12.2 µM

Q: `Cc1ccc(S(=O)(=O)Nc2ccc(O)c(-c3ccccc3O)c2)cc1` was tested. Which IC50 did it give?
A: > 50 µM (inactive)

Q: With `CCOc1ccc(S(=O)(=O)Nc2ccc3c(c2)OCO3)c2cccnc12` as the compound, how does the IC50 read?
A: 16 µM

Q: With `COc1ccc2c3c(cccc13)NN=C2C` as the compound, how does the IC50 read?
A: 8.36 µM

Q: With `O=[N+]([O-])c1cc(S(=O)(=O)Nc2ccc(F)c(-c3c(O)ccc4c3OCO4)c2)ccc1Cl` as the compound, how does the IC50 read?
A: 25 µM

Q: `COc1cc(C2CC(c3ccccc3O)=NN2)ccc1O` (centres undefined) was tested. Which IC50 did it give?
A: > 50 µM (inactive)

Q: How did the IC50 turn out when `Nc1ccc2ncccc2c1N` was run?
A: 3.38 µM

Q: With `CCc1ccc(-c2nnn(CCC(=O)OC)n2)cc1` as the compound, how does the IC50 read?
A: > 50 µM (inactive)

Q: `CCOc1cc(N2CCOCC2)c(OCC)cc1NC1=NCCCCC1` was tested. Which IC50 did it give?
A: 13 µM

Q: With `O=C1C(c2cnc3ccccc3n2)=C(O)c2ccccc21` as the compound, how does the IC50 read?
A: 20 µM

Q: How did the IC50 turn out when `O=c1c(-c2ccc3c(c2)OCCO3)coc2c(CN3CCOCC3)c(O)ccc12` was run?
A: > 50 µM (inactive)

Q: For `O=C(c1ccc2ccccc2c1)N1CCN(c2ccc(O)cc2)CC1`, which IC50 is on record?
A: > 50 µM (inactive)

Q: For `CC(C)NCCCCCNc1cc(O)cc2cccnc12`, which IC50 is on record?
A: 6.25 µM

Q: `CCCC(C)N(CC)CCNc1cc(OC)cc2cccnc12` (centres undefined) was tested. Which IC50 did it give?
A: 12.5 µM

Q: How did the IC50 turn out when `O=[N+]([O-])c1cc(O)cc2cccnc12` was run?
A: 1.56 µM

Q: For `COC(=O)C1=C(C)N(c2cccc3ccccc23)C(=O)C1`, which IC50 is on record?
A: > 50 µM (inactive)

Q: `COc1ccc(S(=O)(=O)Nc2ccc(N)c(-c3ccccc3O)c2)cc1OC` was tested. Which IC50 did it give?
A: > 50 µM (inactive)

Q: `CCOc1ccc2ccccc2c1-c1cc(NS(=O)(=O)c2ccc(OC)c(OC)c2)ccc1N` was tested. Which IC50 did it give?
A: > 50 µM (inactive)

Q: For `Cc1cc(=O)oc2c(N)c(O)ccc12`, which IC50 is on record?
A: > 50 µM (inactive)

Q: How did the IC50 turn out when `CCOC(=O)c1sc(NC(=O)CSc2nnc(-c3ccc(OC)cc3)n2CCOC)nc1C` was run?
A: > 50 µM (inactive)

Q: With `O=S(=O)(Nc1cc(OCc2ccccc2)cc2cccnc12)c1ccc(F)cc1` as the compound, how does the IC50 read?
A: > 50 µM (inactive)

Q: With `CCc1cc(C(=O)Cc2cscn2)c(O)cc1O` as the compound, how does the IC50 read?
A: > 50 µM (inactive)

Q: For `O=S(=O)(Cc1ccc(Cl)cc1)Nc1ccc2c(c1)OCO2`, which IC50 is on record?
A: > 50 µM (inactive)

Q: `CCn1nc(-c2ccccc2)nc2c(=O)n(C)c(=O)nc1-2` was tested. Which IC50 did it give?
A: 0.136 µM

Q: How did the IC50 turn out when `COc1ccc(NCc2cc3cc(OC)ccc3[nH]c2=O)cc1` was run?
A: > 50 µM (inactive)

Q: For `Cc1ccc(S(=O)(=O)Nc2ccc3oc(=O)sc3c2)c(C)c1`, which IC50 is on record?
A: inactive

Q: How did the IC50 turn out when `CCn1c(CSc2nnc3ccccn23)nc2cc(C(=O)O)ccc21` was run?
A: 1.11 µM

Q: With `O=[N+]([O-])c1cccc(S(=O)(=O)Nc2ccc(O)c(-c3ccccc3O)c2)c1` as the compound, how does the IC50 read?
A: > 50 µM (inactive)

Q: For `O=C(COc1ccc(-c2ccccc2)cc1)N1CCN(C(=O)c2cccnc2)CC1`, which IC50 is on record?
A: > 50 µM (inactive)

Q: For `Cn1cnnc1SCC(=O)c1ccc2c(c1)CCCC2`, which IC50 is on record?
A: > 50 µM (inactive)

Q: Which IC50 does the source give for `CCS(=O)(=O)NCc1ccc2[nH]c3c(c2c1)CCCC3` here?
A: 29.2 µM

Q: Which IC50 does the source give for `COc1cccc(C(=O)NC2CC3CCCC(C2)N3CC(=O)Nc2ccccc2)c1` (centres undefined) here?
A: 15.7 µM

Q: With `Cc1ccccc1OCC(O)Cn1c(NCCN(C)C)nc2c1c(=O)n(C)c(=O)n2C` (centres undefined) as the compound, how does the IC50 read?
A: > 50 µM (inactive)
